In one data set the test system is INF-γ. As to the kind of experiment: PHA-induced INF-γ release from human leucocytes (buffy coats). The conditions noted are these: Leucocyte, 30 min pre-incubation, PHA 5 μg/ml 16 hours. Format: cell-based. The protocol:
(§1) The objective of this study was to assess the ability of norketotifen to inhibit cytokine release from stimulated human leucocytes.
(§2) The study was conducted in two phases. The first phase included optimization of the test methodology and including dose-range finding studies, using buffy coats from 3 human donors, stimulated with phytohemagglutinin (PHA). Following optimization of the test conditions, a final protocol was issued. In the ensuing Main Study, white blood cells (buffy coats) from 5 healthy human donors were stimulated with PHA, 5 μg/ml. The concentrations of the test article and the duration of exposure were optimized to obtain acceptable dose-response ratios. Thus, the inhibitory effects of three concentrations of NK and one concentration of ketotifen were evaluated in the Main Study. The buffy coats containing white blood cells from 5 male human donors were resuspended in assay media and were pre-incubated for 30 min with either vehicle/saline, ketotifen 4.3 μg/ml (10 μM) and norketotifen 0.4 μg/ml, 4.1 μg/ml and 41 μg/ml (1.0; 10 and 100 μM). Following these preincubations, the white blood cells were stimulated for 16 hours with PHA, 5 μg/ml. The cell system supernatants were then harvested and stored frozen pending analyses.
(§3) The concentration of the test articles had to be high in this ex vivo study since the test kit used a high concentration of the agonist PHA (5 μg/ml) and a long exposure time (16 hrs).

Data set [1] deals with IL31-induced (SC) pruritus. The experiment in a line: IL-31-induced pruritus in mice. The conditions noted are these: at the dose tested. Format: in vivo. The protocol: To determine if NK inhibits IL31-induced pruritus in mice. Studies have now been performed, using murine IL31 as a pruritogen. Mice were dosed orally with a test article exactly 60 minutes before murine IL31 at a dose of 1.0 μg/30 gram body weight was injected subcutaneously into a previously depilated area on the rostral part of the back of mice. IL31 was dissolved in phosphate buffered saline (PBS) with 0.1% bovine serum albumin (BSA). The injected volume was 0.1 ml/mouse. The bouts of scratching were counted for 120 min, starting 30 min after the injection of IL31. The bouts of scratching were counted by trained laboratory personnel who were unaware of the pretreatment of the animals. Oclacitinib (Apoquel®) is a Janus kinase inhibitor that is the worldwide market leader for oral treatment of atopic dermatitis in dogs.

Another data set has as its system IL-10. The experiment in a line: PHA-induced IL-10 release from human leucocytes (buffy coats). The conditions noted are these: Leucocyte, 30 min pre-incubation, PHA 5 μg/ml 16 hours. Format: cell-based. How it is done:
as §1, §2, §3

The next data set relates to MCP-1. The experiment in a line: PHA-induced MCP-1 release from human leucocytes (buffy coats). Format: cell-based. The conditions noted are these: Leucocyte, 30 min pre-incubation, PHA 5 μg/ml 16 hours. How it is done: as §1, §2, §3
Another data set relates to sedation. The conditions noted are these: dogs, oral; U.S. Pat. No. 8,557,846; cited from earlier work.
In a further data set the test system is IL-13. The experiment in a line: PHA-induced IL-13 release from human leucocytes (buffy coats). In kind it is cell-based. The conditions noted are these: Leucocyte, 30 min pre-incubation, PHA 5 μg/ml 16 hours. How it is done: as §1, §2, §3
Data set [2] relates to human leucocytes (buffy coats). As to the kind of experiment: Cytokine and chemokine release from stimulated human leucocytes, overall. In kind it is cell-based. The conditions noted are these: PHA 5 μg/ml, 16 hours. How it is done:
as §1
as §2, with “analyses. […]” for “analyses.”

Results on one compound are retold here after patent US20230000852A1, “Treatment of Dermal Cytokine Storm Syndromes” (Bridge Pharma, Inc., priority 2021, published 2023).

Molecules are shown by their SMILES.

As a reminder, the inhibition is the share of the control response that was lost under treatment. Low readings indicate little suppression, high ones strong suppression. `O=C1Cc2ccccc2C(=C2CCNCC2)c2ccsc21` (racemic) [NK, norketotifen]: the inhibition at 1 µM in the data set on INF-γ (1 uM) came to 0%; in the data set on IL-10 (1 uM), 12.7%; in the data set on MCP-1 (1 uM), 2.04%; in the data set on IL-13 (1 uM), 0%. The inhibition at 10 µM amounted to 16.5% with INF-γ (10 uM), 24.8% in the data set with IL-10 (10 uM), 14.3% with MCP-1 (10 uM) and 34.5% with IL-13 (10 uM). Besides, the inhibition at 100 µM stood at 71.6% in the data set on INF-γ (100 uM), 90.4% in the data set on IL-10 (100 uM), 84.5% in the data set on MCP-1 (100 uM) and 74.2% with IL-13 (100 uM). Besides, the “Effect on IL-31-induced pruritus (in words)” value in data set [1] is given as “decreased IL-31-induced pruritus”. Besides, the Sedative side effects entry with sedation is “free from sedative side effects”. Moreover, the “Inhibition of release of cytokines and chemokines from human white blood cells (in words)” value in data set [2] is listed as “dose-dependently inhibited”.
